Assay results: patent publication US20240425478A1, “CYCLOPENTYLPYRAZOLE CDK2 INHIBITORS” (Genentech, Inc., priority 2021, published 2024)
Read-outs that look alike come from different tables or passages of the source.

Legend:
[1] = system: HCT116 cells; experiment: p-H3 HCT-116 mitotic release cell proliferation assay (cellular CDK1); type: cell-based; conditions: Homo sapiens, HCT-116; Table O, cellular assay; read-out: CDK1 p-H3 IC50
Method in brief: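 Phospho-Histone H3 (Ser10) in lysates was quantified by a two-antibody HTRF FRET read (≥2 h, room temperature). Before this, HCT116 cells held in mitosis by 16 h of 500 nM nocodazole were treated with compound for 4 h at 37 °C, 0.1% DMSO.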

[2] = target: T1, Cyclin Dependent Kinase 4/Cyclin D3 (CDK4-cycD3) (Homo sapiens, UniProt P11802); experiment: CDK4-cycD3 TR-FRET (LANCE) enzyme assay; type: biochemical; conditions: Table O, enzymatic assay
T1 construct: purchased Carna Biosciences 04-105
Method in brief: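 Compound dose responses pre-incubated 30 min with enzyme mix in 50 mM HEPES pH 7.5, 10 mM MgCl2, 2 mM TCEP, 0.05% BGG, 0.01% Brij 35. Reaction quenched with EDTA (15 mM final); Eu-anti-phospho-4E-BP1 TR-FRET detection, acceptor/donor ratio. Ki derived by Morrison equation.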

[3] = system: OVISE (JCRB1043, CCNE1-amplified); experiment: OVISE EdU incorporation cell proliferation assay (CDK2-dependent); type: cell-based; conditions: for IC50: cellular assay, read-out: CDK2 OVISE IC50; for FS SKOV-3/OVISE / FS p-H3/OVISE: fold selectivity; for FS p-H3/OVISE: cellular p-H3 IC50 over OVISE IC50; for increased fold-selectivity SKOV-3/OVISE over Comparator C: (+) sign after FS SKOV-3/OVISE; for improvement in CDK2 OVISE cell potency over Comparator C: in brackets after OVISE IC50, Comparator C 5.5 μM
Method in brief: (§1)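 EdU incorporation (0.5 μM final, last 8 h) follows a 16 h compound exposure at 37 °C, 5% CO2 in RPMI plus 10% FBS, 0.5% DMSO. After fixation, imaging scores EdU-positive cells; a 4-parameter logistic fit of that fraction gives IC50.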

[4] = target: T2, Cyclin Dependent Kinase 2/Cyclin E1 (CDK2-cycE1) (Homo sapiens, UniProt P24941); experiment: CDK2-cycE1 TR-FRET (LANCE) enzyme assay; type: biochemical; conditions: for FS CDK1/CDK2 / FS CDK4/CDK2: fold selectivity; for increased fold-selectivity CDK4/CDK2 over Comparator C: (+) sign after FS CDK4/CDK2;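 as to improvement in potency against CDK2 (Ki) over Comparator C: fold lower CDK2 Ki than comparator c (Ki 0.032 µM)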
T2 construct: purchased ProQinase 0050-0055-1
Method in brief: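 Kinase reaction buffer: 50 mM HEPES pH 7.5, 10 mM MgCl2, 2 mM TCEP, 0.05% BGG, 0.01% Brij 35, with 30 min compound–enzyme pre-incubation.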

[5] = system: SKOV-3 (ATCC HTB-77); experiment: SKOV-3 EdU incorporation cell proliferation assay (CDK4/6-dependent); type: cell-based; conditions: Homo sapiens, cellular assay, read-out: CDK4/6 SKOV-3 IC50
Method in brief: as §1

[6] = target: T3, Cyclin Dependent Kinase 1/Cyclin A2 (CDK1-cycA2) (Homo sapiens, UniProt P06493); experiment: CDK1-cycA2 TR-FRET (Lance) enzyme assay; type: biochemical; conditions: Table O, enzymatic assay
T3 construct: purchased ProQinase 0134-0054-1
Method in brief: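 TR-FRET (Lance) detection of phospho-4E-BP1 with a europium-labelled antibody after EDTA quench (15 mM final); signal taken as acceptor/donor ratio. Enzyme and compound were pre-incubated 30 min in HEPES pH 7.5 buffer with MgCl2, TCEP, BGG and Brij 35. Ki derived by Morrison fit.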

[7] = Table O, cellular SKOV-3 IC50 over OVISE IC50
[8] = Table O, enzymatic assay, read-out: CDK2 Ki
[9] = Table O, enzymatic CDK1 Ki over CDK2 Ki
[10] = Table O, enzymatic CDK4 Ki over CDK2 Ki
[11] = Table Q, enzymatic assay, read-out: CDK2 Ki
[12] = read-out: CDK2 activity / potency (enzymatic assay)

T1 sequence (P11802 whole entry): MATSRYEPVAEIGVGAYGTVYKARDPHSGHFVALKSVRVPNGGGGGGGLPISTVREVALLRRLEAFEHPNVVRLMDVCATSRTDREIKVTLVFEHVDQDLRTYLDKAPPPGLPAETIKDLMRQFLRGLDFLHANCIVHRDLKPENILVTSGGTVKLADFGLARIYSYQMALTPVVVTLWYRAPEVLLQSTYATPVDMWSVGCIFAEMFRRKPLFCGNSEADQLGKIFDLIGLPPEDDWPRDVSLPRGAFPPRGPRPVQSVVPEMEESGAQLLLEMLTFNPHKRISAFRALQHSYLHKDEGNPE
T1 sequence (P30281 whole entry partner): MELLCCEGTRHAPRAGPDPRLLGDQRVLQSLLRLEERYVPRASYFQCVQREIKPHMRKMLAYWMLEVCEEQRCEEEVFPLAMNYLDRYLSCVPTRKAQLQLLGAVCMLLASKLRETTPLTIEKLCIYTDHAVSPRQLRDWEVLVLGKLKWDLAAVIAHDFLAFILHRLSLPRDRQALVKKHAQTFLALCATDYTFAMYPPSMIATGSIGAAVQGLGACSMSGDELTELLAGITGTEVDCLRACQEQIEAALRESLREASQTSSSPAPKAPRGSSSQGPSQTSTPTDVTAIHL
T3 sequence (P06493 whole entry): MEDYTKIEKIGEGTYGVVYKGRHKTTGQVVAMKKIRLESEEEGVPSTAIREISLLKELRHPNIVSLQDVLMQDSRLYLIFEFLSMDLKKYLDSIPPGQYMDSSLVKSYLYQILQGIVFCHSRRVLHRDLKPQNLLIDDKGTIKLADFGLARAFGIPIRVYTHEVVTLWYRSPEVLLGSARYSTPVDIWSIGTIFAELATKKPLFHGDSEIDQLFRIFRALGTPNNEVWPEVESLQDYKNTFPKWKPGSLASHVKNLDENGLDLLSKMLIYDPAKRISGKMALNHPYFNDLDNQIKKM
T3 sequence (P20248 whole entry partner): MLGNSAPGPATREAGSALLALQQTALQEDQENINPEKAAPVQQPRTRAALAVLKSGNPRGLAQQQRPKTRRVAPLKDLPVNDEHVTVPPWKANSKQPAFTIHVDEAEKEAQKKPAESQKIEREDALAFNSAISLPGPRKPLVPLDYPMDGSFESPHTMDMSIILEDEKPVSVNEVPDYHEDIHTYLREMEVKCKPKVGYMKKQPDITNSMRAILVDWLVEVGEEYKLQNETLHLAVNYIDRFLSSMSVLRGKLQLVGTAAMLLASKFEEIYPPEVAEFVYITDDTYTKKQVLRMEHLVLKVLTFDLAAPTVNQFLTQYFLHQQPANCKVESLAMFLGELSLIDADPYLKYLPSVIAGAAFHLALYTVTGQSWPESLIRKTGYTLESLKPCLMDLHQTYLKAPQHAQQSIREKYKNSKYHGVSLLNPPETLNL

IC50 [1] [nM]	Ki [2] [nM]	Ki [4, 8] [nM]	FS CDK1/CDK2 [4, 9]	FS CDK4/CDK2 [4, 10]	IC50 ([5]; SK-OV-3, Table O) [µM]	Ki [6] [nM]	SMILES	IC50 ([3]; Table O) [nM]	FS SKOV-3/OVISE [3, 7]	FS p-H3/OVISE ([3]; Table O)	increased fold-selectivity SKOV-3/OVISE over Comparator C ([3]; Table Q)	FS SKOV-3/OVISE ([3]; Table Q, cellular)	improvement in CDK2 OVISE cell potency over Comparator C ([3]; Table Q) [fold]	improvement in potency against CDK2 (Ki) over Comparator C [4] [fold]	increased fold-selectivity CDK4/CDK2 over Comparator C ([4]; Table Q)	Ki [4, 11] [nM]	FS CDK1/CDK2 ([4]; Table Q, enzymatic)	FS CDK4/CDK2 ([4]; Table Q, enzymatic)	IC50 ([5]; SK-OV-3, Table Q) [µM]	Ki [4, 12] [nM]	also measured
560	660	3.1	52	213	15	160	Cc1ncccc1Nc1cc([C@H]2CC[C@@H](OC(=O)NC3(C)COC3)C2)[nH]n1 [Example 8]	320	47	1.8											
290	18	2.9	17	6.2	15	48	C[C@H](NC(=O)O[C@@H]1CC[C@H](c2cc(Nc3ccc(=O)n(C)n3)n[nH]2)C1)c1ccccc1 [Example 6E, (1R,3S)-3-(3-((1-methyl-6-oxo-1,6-dihydropyridazin-3-yl)amino)-1H-pyrazol-5-yl)cyclopentyl ((S)-1-phenylethyl)carbamate]	320	47	0.91											
190	240	0.44	36	550	11	16	CC(C)NC(=O)O[C@@H]1CC[C@H](c2cc(Nc3ccc(=O)n(C)n3)n[nH]2)C1 [Example 2, (1R,3S)-3-(3-((1-methyl-6-oxo-1,6-dihydropyridazin-3-yl)amino)-1H-pyrazol-5-yl)cyclopentyl isopropylcarbamate]	93	120	1.9	(+) (The (+) sign in Table Q signifies desirable increased fold-selectivity of the exemplary compounds over Comparator C)	120	59		(+) (The (+) sign in Table Q signifies desirable increased fold-selectivity of the exemplary compounds over Comparator C)	0.44	36	550	11	≤ 1	improvement in potency against CDK2 (Ki) over Comparator C ([4]; Table Q, in brackets after CDK2 Ki, Comparator C 0.032 μM): 73 fold

The next lines start with the compound.

SMILES	IC50 [1] [nM]	Ki [2] [nM]	Ki [4, 8] [nM]	FS CDK1/CDK2 [4, 9]	FS CDK4/CDK2 [4, 10]	IC50 ([5]; SK-OV-3, Table O) [µM]	Ki [6] [nM]	IC50 ([3]; Table O) [nM]	FS SKOV-3/OVISE [3, 7]	FS p-H3/OVISE ([3]; Table O)	increased fold-selectivity SKOV-3/OVISE over Comparator C ([3]; Table Q)	FS SKOV-3/OVISE ([3]; Table Q, cellular)	improvement in CDK2 OVISE cell potency over Comparator C ([3]; Table Q) [fold]	improvement in potency against CDK2 (Ki) over Comparator C [4] [fold]	increased fold-selectivity CDK4/CDK2 over Comparator C ([4]; Table Q)	Ki [4, 11] [nM]	FS CDK1/CDK2 ([4]; Table Q, enzymatic)	FS CDK4/CDK2 ([4]; Table Q, enzymatic)	IC50 ([5]; SK-OV-3, Table Q) [µM]	Ki [4, 12] [nM]	also measured
Cc1nccc(Nc2cc([C@H]3CC[C@@H](OC(=O)NC(C)C)C3)[nH]n2)n1 [Example 2O, (1R,3S)-3-(3-((2-methylpyrimidin-4-yl)amino)-1H-pyrazol-5-yl)cyclopenty1 isopropylcarbamate]	22	250	0.87	28	290	3.9	24	70	56	0.31	(+) (The (+) sign in Table Q signifies desirable increased fold-selectivity of the exemplary compounds over Comparator C)	56	78.6	37	(+) (The (+) sign in Table Q signifies desirable increased fold-selectivity of the exemplary compounds over Comparator C)	0.87	28	290	3.9		
Cc1cnc(Nc2cc([C@H]3CC[C@@H](OC(=O)NC(C)C)C3)[nH]n2)c(C)n1 [Example 2V, (1R,3S)-3-(3-((3,5-dimethylpyrazin-2-yl)amino)-1H-pyrazol-5-y1)cyclopentyl isopropylcarbamate]	97	260	0.92	39	280	2.5	36	110	23	0.88	(+) (The (+) sign in Table Q signifies desirable increased fold-selectivity of the exemplary compounds over Comparator C)	23	50	35	(+) (The (+) sign in Table Q signifies desirable increased fold-selectivity of the exemplary compounds over Comparator C)	0.92	39	280	2.5	≤ 1	increased fold-selectivity CDK1/CDK2 over Comparator C ([4]; Table Q, (+) sign after FS CDK1/CDK2): (+) (The (+) sign in Table Q signifies desirable increased fold-selectivity of the exemplary compounds over Comparator C)
Cc1nccnc1Nc1cc([C@H]2CC[C@@H](OC(=O)NC3(C)COC3)C2)[nH]n1 [Example 8B, (1R,3S)-3-(3-((3-methylpyrazin-2-yl)amino)-1H-pyrazol-5-yl)cyclopentyl (3-methyloxetan-3-yl)carbamate]	140	140	0.66	79	212	3	52	87	34	1.6											
CN(C)Cc1ccc(Nc2cc([C@H]3CC[C@@H](OC(=O)NC45CC(C4)C5)C3)[nH]n2)cn1 [Example 9J, (1R,3S)-3-(3-((6-((dimethylamino)methyl)pyridin-3-yl)amino)-1H-pyrazol-5-yl)cyclopentyl bicyclo[1.1.1]pentan-1-ylcarbamate]	39	17	1.9	34	8.9	0.28	64	89	3.1	0.44											
CC(C)NC(=O)O[C@@H]1CC[C@H](c2cc(Nc3ccnc(N(C)C)n3)n[nH]2)C1 [Example 2I, (1R,3S)-3-(3-((2-(dimethylamino)pyrimidin-4-yl)amino)-1H-pyrazol-5-yl)cyclopentyl isopropylcarbamate]	9.4	27	0.31	19	87	1	6	67	15	0.14	(+) (The (+) sign in Table Q signifies desirable increased fold-selectivity of the exemplary compounds over Comparator C)	15	82	103	(+) (The (+) sign in Table Q signifies desirable increased fold-selectivity of the exemplary compounds over Comparator C)	0.31	19	87	1	≤ 1	
